Patent publication US11246818B2, “Peptides and compositions for use in cosmetics” (LIPOTRUE, S.L., priority 2017, dated 2022)
Residues, ends and D or L forms follow the SMILES beside them.

How the values were obtained:
[1] = system: Primary human epidermal keratinocytes; assay: Protection against DNA oxidation induced by synthetic smoke (8-OHdG, competitive ELISA); assay type: cell-based; conditions: synthetic smoke 48 h
Protocol: (§1) Primary human epidermal keratinocytes were seeded in 96-well plates in standard culture medium and, 24 hours later, subjected to a simultaneous treatment with synthetic smoke containing selected compounds from the particle phase (for example, cadmium and nicotine) and vapour phase (for example, formaldehyde (hereinafter, FA) and ethyl carbamate) of tobacco smoke and the analysed compound (Ac-SEQ ID NO: 1-NH2) for 48 h.
After treatment, cells were lysed and DNA oxidation on cell homogenates was analysed measuring levels of 8-OHdG by means of a competitive ELISA assay with absorbance at 450 nm.

[2] = system: Primary human epidermal keratinocytes; assay: Protection against lipoxidation induced by synthetic smoke (intracellular MDA); assay type: cell-based; conditions: synthetic smoke 48 h
Protocol: as §1
In addition, after treatment, lipoxidation was analysed by means of the levels of intracellular MDA, which were measured by the reaction between MDA and N-methyl-2-phenylindole (hereinafter, NMPI) rendering a stable blue chromophore with an absorption peak at 586 nm.

AhR = AhR immunostaining on human skin explants exposed to pollutants; conditions: composition of Example 8 applied topically, versus pollutants without peptide
Protocol: (§2) The protection efficacy of peptide Ac-SEQ ID NO: 1-NH2 against pollution aggression on human living explants was assessed by observation of the general morphology, immunostaining of AhR and HO-1 (both are known markers of oxidative stress as they have been related to anti-oxidative response) (Esser C., Bargen I., Weighardt H., Haarmann-Stemmann T., Krutmann J., Functions of the aryl hydrocarbon receptor in the skin, Semin Immunopathol (2013) 35:677-691; Kohen R., Nyska A., Oxidation of Biological Systems: Oxidative Stress Phenomena, Antioxidants, Redox Reactions, and Methods for Their Quantification, Toxicologic Pathology (2002) vol 30, no 6, 620-650).
(§3) Briefly, human skin explants from a person were put in culture under controlled conditions. 21 skin explants of an average diameter of 11 mm (±1 mm) were prepared and kept in survival in BEM culture medium at 37° C. in a humid, 5% CO2 atmosphere. The explants were distributed in 5 batches: explant control (Time=0), control batch, explants treated with the above-mentioned peptide, explants treated with pollutant and explants treated with pollutant and with the above-mentioned peptide. A composition containing Ac-SEQ ID NO: 1-NH2 in accordance with Example 8 was prepared and it was topically applied on days 0, 1, 3 and 4. […] Finally, image analyses and quantification were performed using Cell^D software (Olympus, Tokyo, Japan).

HO-1 = HO-1 immunostaining on human skin explants
Protocol: as §2, §3

[3] = lower tested concentration (0.01 mg/ml)
[4] = other two tested concentrations (0.05, 0.1 mg/ml)

CC(=O)N[C@@H](CC(=O)O)C(=O)N[C@@H](Cc1ccc(O)cc1)C(=O)N[C@@H](CCCCN)C(=O)N[C@H](C(N)=O)C(C)C [Ac-SEQ ID NO: 1-NH2, Ac-Asp-Tyr-Lys-Val-NH2] (Ac-DYKV-NH2)
protection of DNA oxidation ([1]; 0.1 mg/ml): almost complete inhibition of the effects of synthetic smoke | DNA oxidation (8-OHdG) [1, 3]: slight decrease (non-statistically significant) | DNA oxidation (8-OHdG) [1, 4]: higher, statistically significant, effect | lipoxidation (MDA) [2, 3]: slight decrease (non-statistically significant) | lipoxidation (MDA) [2, 4]: higher, statistically significant, effect | decrease in AhR (epidermal surface occupied) (AhR): 16% | decrease in HO-1 (epidermal surface occupied) (HO-1; composition of Example 8 applied topically, exposed to pollutants, versus pollutants without peptide): 23% | increase of levels of HO-1 (HO-1; peptide in a final formulation, without exposure to pollutants, versus untreated and unexposed explants): 69%
